# Data taken from patent US11542313B2, “Incretin analogs and uses thereof” (Eli Lilly and Company, priority 2017, dated 2023).
# *1 amine or outer side, *2 acyl side, *3 side chain or, on linkers, in order; H or OH if unused. Where a SMILES comes first, the peptide text is derived from it. Side-chain parts run from the residue outwards. [ ]: non-standard residue; d: D form. The star is where a group is joined. C20 diacid = O=C(O)CCCCCCCCCCCCCCCCCCC(=O)*; γGlu = O=C(O)[C@H](CCC(=O)[*:2])N[*:1]; αMeL = CC(C)C[C@](C)(N)C(=O)O; AEEA = NCCOCCOCC(=O)O; Aib = CC(C)(N)C(=O)O
# How the values were obtained:
# [1] = target: T1, GLP-1 receptor (GLP-1R) (Homo sapiens, UniProt P43220); assay: Radioligand competition binding (SPA), human GLP-1R membranes; settings: HEK293 membranes, SPA, bacitracin present; mean; read-out: Ki, GLP-1R
# T1 construct: expressed in transfected cells; host or cells: HEK293 (membranes)
# Description: (§1) Radioligand competition binding assays are run to determine the equilibrium dissociation constant for exemplary compounds and comparator molecules.
# (§2) Competition curves are plotted as the percent specific inhibition (y-axis) versus log concentration of compound (x-axis) and analyzed using a four parameter nonlinear regression fit with variable slope (ABase or Genedata).
# [2] = target: T2, hGIPR (Homo sapiens, UniProt P48546); assay: cAMP assay in HEK293 cells expressing hGIPR, 0.1% casein; assay type: cell-based; settings: in the presence of 0.1% casein; read-out: cAMP EC50, GIPR
# T2 construct: expressed in transfected cells; host or cells: HEK293
# T2 sequence (P48546 22-466): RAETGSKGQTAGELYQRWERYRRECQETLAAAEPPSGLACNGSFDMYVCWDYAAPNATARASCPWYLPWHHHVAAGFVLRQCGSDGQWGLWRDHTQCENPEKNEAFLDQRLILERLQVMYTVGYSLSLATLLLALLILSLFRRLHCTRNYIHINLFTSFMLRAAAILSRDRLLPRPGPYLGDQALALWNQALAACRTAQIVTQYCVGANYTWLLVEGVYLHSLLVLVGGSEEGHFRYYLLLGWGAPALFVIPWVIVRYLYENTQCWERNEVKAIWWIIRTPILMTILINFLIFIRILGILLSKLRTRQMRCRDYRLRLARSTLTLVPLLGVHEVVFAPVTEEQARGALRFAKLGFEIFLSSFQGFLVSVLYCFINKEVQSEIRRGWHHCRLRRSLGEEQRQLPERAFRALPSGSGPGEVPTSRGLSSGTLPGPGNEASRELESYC
# [3] = target: T3, human glucagon receptor (GcgR) (Homo sapiens, UniProt P47871); assay: Radioligand competition binding (SPA), human GcgR membranes; settings: HEK293 membranes, SPA, bacitracin present; mean; read-out: Ki, GcgR
# T3 construct: expressed in transfected cells; host or cells: HEK293 (membranes)
# Description: as §1, §2
# [4] = target: T4, hGcgR (Homo sapiens, UniProt P47871); assay: cAMP assay in HEK293 cells expressing hGcgR, 0.1% casein; assay type: cell-based; settings: in the presence of 0.1% casein; read-out: cAMP EC50, GcGR
# T4 construct: expressed in transfected cells; host or cells: HEK293
# [5] = target: hGLP-1R (Homo sapiens, UniProt P43220); assay: cAMP assay in HEK293 cells expressing hGLP-1R, 0.1% casein; assay type: cell-based; settings: in the presence of 0.1% casein; read-out: cAMP EC50, GLP-1R
# [6] = target: T5, human GIP receptor (GIPR) (Homo sapiens, UniProt P48546); assay: Radioligand competition binding (SPA), human GIPR membranes; settings: HEK293 membranes, SPA, bacitracin present; mean; read-out: Ki, GIPR
# T5 construct: expressed in transfected cells; host or cells: HEK293 (membranes)
# T5 sequence (P48546 22-466): T2 sequence (P48546 22-466)
# Description: as §1, §2
# T1 sequence (P43220 24-463): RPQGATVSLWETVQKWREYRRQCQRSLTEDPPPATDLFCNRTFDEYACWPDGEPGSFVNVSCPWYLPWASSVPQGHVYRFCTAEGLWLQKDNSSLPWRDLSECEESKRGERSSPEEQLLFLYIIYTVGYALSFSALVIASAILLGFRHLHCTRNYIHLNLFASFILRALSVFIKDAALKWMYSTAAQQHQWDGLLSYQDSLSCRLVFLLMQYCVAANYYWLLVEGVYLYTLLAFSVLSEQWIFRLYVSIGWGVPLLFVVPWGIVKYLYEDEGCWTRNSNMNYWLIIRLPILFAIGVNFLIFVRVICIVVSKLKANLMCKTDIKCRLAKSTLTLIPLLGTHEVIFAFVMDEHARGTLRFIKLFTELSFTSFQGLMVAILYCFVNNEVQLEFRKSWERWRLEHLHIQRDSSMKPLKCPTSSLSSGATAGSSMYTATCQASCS
# Chain of hGLP-1R (P43220 24-463): as above
# T4 sequence (P47871 26-477): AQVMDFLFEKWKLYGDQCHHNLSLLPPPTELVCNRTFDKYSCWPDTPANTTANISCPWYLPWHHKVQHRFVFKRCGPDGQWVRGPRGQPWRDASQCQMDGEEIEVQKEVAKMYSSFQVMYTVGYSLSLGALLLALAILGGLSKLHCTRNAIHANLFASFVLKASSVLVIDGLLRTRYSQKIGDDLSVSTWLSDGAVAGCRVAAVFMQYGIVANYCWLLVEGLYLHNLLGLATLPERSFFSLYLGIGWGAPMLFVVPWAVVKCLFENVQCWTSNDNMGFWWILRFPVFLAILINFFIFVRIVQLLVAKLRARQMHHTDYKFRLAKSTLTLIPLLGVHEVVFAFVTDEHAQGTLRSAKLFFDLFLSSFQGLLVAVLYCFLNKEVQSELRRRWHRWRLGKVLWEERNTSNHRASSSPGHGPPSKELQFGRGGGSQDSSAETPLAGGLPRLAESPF
# T3 sequence (P47871 26-477): as above
SMILES,Ki [1] [nM],EC50 [2] [nM],Ki [3] [nM],EC50 [4] [nM],EC50 [5] [nM],Ki [6] [nM]
CC[C@H](C)[C@H](NC(=O)[C@H](Cc1ccccc1)NC(=O)[C@H](C)NC(=O)[C@](C)(CCCCN)NC(=O)[C@H](CCC(N)=O)NC(=O)[C@H](C)NC(=O)[C@H](CCCCNC(=O)COCCOCCNC(=O)COCCOCCNC(=O)CC[C@H](NC(=O)CCCCCCCCCCCCCCCCCCC(=O)O)C(=O)O)NC(=O)[C@H](CCCCN)NC(=O)[C@H](CC(=O)O)NC(=O)[C@H](CC(C)C)NC(=O)[C@H](CC(C)C)NC(=O)[C@@H](NC(=O)[C@H](CO)NC(=O)[C@H](Cc1ccc(O)cc1)NC(=O)[C@H](CC(=O)O)NC(=O)[C@H](CO)NC(=O)[C@@H](NC(=O)[C@H](Cc1ccccc1)NC(=O)[C@@H](NC(=O)CNC(=O)[C@H](CCC(N)=O)NC(=O)C(C)(C)NC(=O)[C@@H](N)Cc1ccc(O)cc1)[C@@H](C)O)[C@@H](C)O)[C@@H](C)CC)C(=O)N[C@@H](CCC(=O)O)C(=O)N[C@@H](Cc1ccc(O)cc1)C(=O)N[C@@H](CC(C)C)C(=O)N[C@@H](CC(C)C)C(=O)N[C@@H](CCC(=O)O)C(=O)NCC(=O)NCC(=O)N1CCC[C@H]1C(=O)N[C@@H](CO)C(=O)N[C@@H](CO)C(=O)NCC(=O)N[C@@H](C)C(=O)N1CCC[C@H]1C(=O)N1CCC[C@H]1C(=O)N1CCC[C@H]1C(=O)N[C@@H](CO)C(N)=O [Example 8],29.4,0.114,30.4,0.12,0.117,0.0958
CC[C@H](C)[C@H](NC(=O)[C@H](Cc1ccccc1)NC(=O)[C@H](C)NC(=O)[C@H](Cc1c[nH]cn1)NC(=O)[C@H](CCC(N)=O)NC(=O)[C@H](C)NC(=O)[C@H](CCCCNC(=O)CC[C@H](NC(=O)CC[C@H](NC(=O)CCCCCCCCCCCCCCCCCCC(=O)O)C(=O)O)C(=O)O)NC(=O)[C@H](CCCCN)NC(=O)[C@H](CC(=O)O)NC(=O)[C@H](CC(C)C)NC(=O)[C@](C)(CC(C)C)NC(=O)[C@@H](NC(=O)[C@H](CO)NC(=O)[C@H](Cc1ccc(O)cc1)NC(=O)[C@H](CC(=O)O)NC(=O)[C@H](CO)NC(=O)[C@@H](NC(=O)[C@H](Cc1ccccc1)NC(=O)[C@@H](NC(=O)CNC(=O)[C@H](CCC(N)=O)NC(=O)C(C)(C)NC(=O)[C@@H](N)Cc1ccc(O)cc1)[C@@H](C)O)[C@@H](C)O)[C@@H](C)CC)C(=O)N[C@@H](CCC(=O)O)C(=O)N[C@@H](Cc1ccc(O)cc1)C(=O)N[C@@H](CC(C)C)C(=O)N[C@@H](CC(C)C)C(=O)N[C@@H](CCC(=O)O)C(=O)NCC(=O)NCC(=O)N1CCC[C@H]1C(=O)N[C@@H](CO)C(=O)N[C@@H](CO)C(=O)NCC(=O)N[C@@H](C)C(=O)N1CCC[C@H]1C(=O)N1CCC[C@H]1C(=O)N1CCC[C@H]1C(=O)N[C@@H](CO)C(N)=O [Example 9] (H-Y[Aib]QGTFTSDYSI[αMeL]LDKK([γGlu-γGlu-C20 diacid])AQHAFIEYLLEGGPSSGAPPPS-NH2; N-terminus assumed),11.5,0.0522,8.27,0.139,0.0931,0.126
CC[C@H](C)[C@H](NC(=O)[C@H](Cc1ccccc1)NC(=O)[C@H](C)NC(=O)C(C)(C)NC(=O)[C@H](CCC(N)=O)NC(=O)[C@H](C)NC(=O)[C@H](CCCCNC(=O)COCCOCCNC(=O)CC[C@H](NC(=O)CCCCCCCCCCCCCCCCCCC(=O)O)C(=O)O)NC(=O)[C@H](CCCCN)NC(=O)[C@H](CC(=O)O)NC(=O)[C@H](CC(C)C)NC(=O)[C@H](CC(C)C)NC(=O)[C@@H](NC(=O)[C@H](CO)NC(=O)[C@H](Cc1ccc(O)cc1)NC(=O)[C@H](CC(=O)O)NC(=O)[C@H](CO)NC(=O)[C@@H](NC(=O)[C@H](Cc1ccccc1)NC(=O)[C@@H](NC(=O)CNC(=O)[C@H](CCC(N)=O)NC(=O)C(C)(C)NC(=O)[C@@H](N)Cc1ccc(O)cc1)[C@@H](C)O)[C@@H](C)O)[C@@H](C)CC)C(=O)N[C@@H](CCC(=O)O)C(=O)N[C@@H](Cc1ccc(O)cc1)C(=O)N[C@@H](CC(C)C)C(=O)N[C@@H](CC(C)C)C(=O)N[C@@H](CCC(=O)O)C(=O)NC(C)(C)C(=O)NCC(=O)N1CCC[C@H]1C(=O)N[C@@H](CO)C(=O)N[C@@H](CO)C(=O)NCC(=O)N[C@@H](C)C(=O)N1CCC[C@H]1C(=O)N1CCC[C@H]1C(=O)N1CCC[C@H]1C(=O)N[C@@H](CO)C(N)=O [Example 20] (H-Y[Aib]QGTFTSDYSILLDKK([AEEA-γGlu-C20 diacid])AQ[Aib]AFIEYLLE[Aib]GPSSGAPPPS-NH2; N-terminus assumed),9.23,0.0572,3.76,0.0641,0.149,0.109
CC[C@H](C)[C@H](NC(=O)[C@H](Cc1ccccc1)NC(=O)[C@H](C)NC(=O)C(C)(C)NC(=O)[C@H](CCC(N)=O)NC(=O)[C@H](C)NC(=O)[C@H](CCCCNC(=O)COCCOCCNC(=O)COCCOCCNC(=O)CC[C@H](NC(=O)CCCCCCCCCCCCCCCCCCC(=O)O)C(=O)O)NC(=O)[C@H](CCCCN)NC(=O)[C@H](CC(=O)O)NC(=O)[C@H](CC(C)C)NC(=O)[C@H](CC(C)C)NC(=O)[C@@H](NC(=O)[C@H](CO)NC(=O)[C@H](Cc1ccc(O)cc1)NC(=O)[C@H](CC(=O)O)NC(=O)[C@H](CO)NC(=O)[C@@H](NC(=O)[C@H](Cc1ccccc1)NC(=O)[C@@H](NC(=O)CNC(=O)[C@H](CCC(N)=O)NC(=O)C(C)(C)NC(=O)[C@@H](N)Cc1ccc(O)cc1)[C@@H](C)O)[C@@H](C)O)[C@@H](C)CC)C(=O)N[C@@H](CCC(=O)O)C(=O)N[C@@H](Cc1ccc(O)cc1)C(=O)N[C@@H](CC(C)C)C(=O)N[C@@H](CC(C)C)C(=O)N[C@@H](CCC(=O)O)C(=O)NC(C)(C)C(=O)NCC(=O)N1CCC[C@H]1C(=O)N[C@@H](CO)C(=O)N[C@@H](CO)C(=O)NCC(=O)N[C@@H](C)C(=O)N1CCC[C@H]1C(=O)N1CCC[C@H]1C(=O)N1CCC[C@H]1C(=O)N[C@@H](CO)C(N)=O [Example 17] (H-Y[Aib]QGTFTSDYSILLDKK([AEEA-AEEA-γGlu-C20 diacid])AQ[Aib]AFIEYLLE[Aib]GPSSGAPPPS-NH2),10.2,0.0439,5.81,0.135,0.153,0.0895
CC[C@H](C)[C@H](NC(=O)[C@H](Cc1ccccc1)NC(=O)[C@H](C)NC(=O)C(C)(C)NC(=O)[C@H](CCC(N)=O)NC(=O)[C@H](C)NC(=O)[C@H](CCCCNC(=O)COCCOCCNC(=O)COCCOCCNC(=O)CC[C@H](NC(=O)CCCCCCCCCCCCCCCCCCC(=O)O)C(=O)O)NC(=O)[C@H](CCCCN)NC(=O)[C@H](CC(=O)O)NC(=O)[C@H](CC(C)C)NC(=O)[C@H](CC(C)C)NC(=O)[C@@H](NC(=O)[C@H](CO)NC(=O)[C@H](Cc1ccc(O)cc1)NC(=O)[C@H](CC(=O)O)NC(=O)[C@H](CO)NC(=O)[C@@H](NC(=O)[C@H](Cc1ccccc1)NC(=O)[C@@H](NC(=O)CNC(=O)[C@H](CCC(N)=O)NC(=O)C(C)(C)NC(=O)[C@@H](N)Cc1ccc(O)cc1)[C@@H](C)O)[C@@H](C)O)[C@@H](C)CC)C(=O)N[C@@H](CCC(=O)O)C(=O)N[C@@H](Cc1ccc(O)cc1)C(=O)N[C@@H](CC(C)C)C(=O)N[C@@H](CC(C)C)C(=O)N[C@@H](C)C(=O)NC(C)(C)C(=O)NCC(=O)N1CCC[C@H]1C(=O)N[C@@H](CO)C(=O)N[C@@H](CO)C(=O)NCC(=O)N[C@@H](C)C(=O)N1CCC[C@H]1C(=O)N1CCC[C@H]1C(=O)N1CCC[C@H]1C(=O)N[C@@H](CO)C(N)=O [Example 15] (H-Y[Aib]QGTFTSDYSILLDKK([AEEA-AEEA-γGlu-C20 diacid])AQ[Aib]AFIEYLLA[Aib]GPSSGAPPPS-NH2; N-terminus assumed),5.8,0.0689,4.56,0.131,0.253,0.0972
